Measurements published in patent publication US11987604B2, “Fusion-proteins based on human ferritin and protease-cleavable peptides and their use as chemotherapeutics carriers” (THENA BIOTECH S.R.L., priority 2017, dated 2024).

Columns and labels:
Assay type in all cases: cell-based
[1] = test system: pancreatic PaCa 44 cancer cells; assay: XTT viability assay, PaCa 44; conditions: Homo sapiens, Paca44 cells, read-out: killing efficacy (IC50)
[2] = test system: pancreatic Capan 1 cancer cells; assay: XTT viability assay, Capan 1; conditions: Homo sapiens, Capan 1 cells, read-out: killing efficacy (IC50)
[3] = test system: pancreatic MiaPaCa2 cancer cells; assay: XTT viability assay, MiaPaCa2; conditions: Homo sapiens, MIA PaCa-2, read-out: killing efficacy (IC50)
SW480 colon cancer cells = assay: Cell internalization and localization by confocal microscopy, SW480; conditions: SW480, 3 h incubation at 37° C., 20 μM MIT
Procedure: (§1) Left panels: Lamin A/C staining (nuclear membrane marker, green); central panels: MIT (blue); right panels: merge. The white bar indicates a 10 μm length.
(§2) MIT concentration is 20 μM in all experiments. The white bar indicates a 20 μm length.
(§3) To determine whether MIT containing HFt based constructs undergo cell surface binding and/or internalization, they were incubated with colon cancer cells SW480 and SW620 at 37° C. for 1 or 3 h and MIT associated fluorescence was visualized by confocal microscopy. […] In particular, MIT localizes in intranuclear structures assumed to be nucleoli on the basis of size, position and shape, as previously proposed for colon carcinoma and breast cancer cells.

SW620 colon cancer cells = assay: Cell internalization and localization by confocal microscopy, SW620; conditions: SW620, 3 h incubation at 37° C., 20 μM MIT
Procedure: as §1, §2, §3

Nc1ccn([C@@H]2O[C@H](CO)[C@@H](O)C2(F)F)c(=O)n1 [Gemcitabine]
IC50 [1]: 6750 nM | IC50 [2]: 2800 nM | IC50 [3]: 1150 nM

O=C1c2c(O)ccc(O)c2C(=O)c2c(NCCNCCO)ccc(NCCNCCO)c21 [MIT, mitoxantrone]
MIT localization in cells (SW480 colon cancer cells): partly present also in the cytoplasm | MIT localization in cells (SW620 colon cancer cells): partly present also in the cytoplasm
